Results as given in the NIST ThermoML archive (doi:10.1021/je900387e).

Assay: xn = mol fraction of the nth substance listed
Conditions: Liquid, Pycnometric method

Cn1ccnc1 [1-methylimidazole] + O=C=O
Conditions	mass density [kg/m3]
322.7 K, 12990 kPa, x1 = 0.0487	807
322.7 K, 13020 kPa, x1 = 0.0247	755
322.7 K, 13030 kPa, x1 = 0.0102	707
322.7 K, 13120 kPa, x1 = 0.0487	809
322.7 K, 13250 kPa, x1 = 0.0487	812
322.7 K, 13310 kPa, x1 = 0.0247	762
322.7 K, 13480 kPa, x1 = 0.0102	723
322.7 K, 13500 kPa, x1 = 0.0487	817
322.7 K, 13620 kPa, x1 = 0.0247	770
322.7 K, 13790 kPa, x1 = 0.0487	822
322.7 K, 13950 kPa, x1 = 0.0247	777
322.7 K, 14040 kPa, x1 = 0.0102	740
322.7 K, 14080 kPa, x1 = 0.0487	827
322.7 K, 14340 kPa, x1 = 0.0247	786
322.7 K, 14370 kPa, x1 = 0.0487	832
322.7 K, 14510 kPa, x1 = 0.0102	753
322.7 K, 14640 kPa, x1 = 0.1024	909
322.7 K, 14710 kPa, x1 = 0.0487	838
322.7 K, 14750 kPa, x1 = 0.0247	794
322.7 K, 14780 kPa, x1 = 0.1024	911
322.7 K, 14920 kPa, x1 = 0.1024	912
322.7 K, 15030 kPa, x1 = 0.1024	913
322.7 K, 15070 kPa, x1 = 0.0487	843
322.7 K, 15180 kPa, x1 = 0.1024	915
322.7 K, 15200 kPa, x1 = 0.0247	802
322.7 K, 15260 kPa, x1 = 0.0102	771
322.7 K, 15290 kPa, x1 = 0.1024	916
322.7 K, 15430 kPa, x1 = 0.0487	849
322.7 K, 15470 kPa, x1 = 0.1024	917
322.7 K, 15590 kPa, x1 = 0.1024	918
322.7 K, 15690 kPa, x1 = 0.0247	810
322.7 K, 15860 kPa, x1 = 0.0487	855
322.7 K, 15900 kPa, x1 = 0.1024	922
322.7 K, 16070 kPa, x1 = 0.0247	816
322.7 K, 16210 kPa, x1 = 0.0102	790
322.7 K, 16230 kPa, x1 = 0.1024	924
322.7 K, 16280 kPa, x1 = 0.0487	860
322.7 K, 16530 kPa, x1 = 0.1024	927
322.7 K, 16540 kPa, x1 = 0.0247	824
322.7 K, 16700 kPa, x1 = 0.0487	866
322.7 K, 16830 kPa, x1 = 0.0247	828
322.7 K, 16880 kPa, x1 = 0.1024	929
322.7 K, 17020 kPa, x1 = 0.0102	805
322.7 K, 17160 kPa, x1 = 0.0247	833
322.7 K, 17180 kPa, x1 = 0.1024	933
322.7 K, 17340 kPa, x1 = 0.1024	934
322.7 K, 17490 kPa, x1 = 0.0247	837
322.7 K, 17570 kPa, x1 = 0.1024	936
322.7 K, 17750 kPa, x1 = 0.1024	937
322.7 K, 17830 kPa, x1 = 0.0247	842
322.7 K, 17920 kPa, x1 = 0.1024	939
322.7 K, 17960 kPa, x1 = 0.0102	821
322.7 K, 18120 kPa, x1 = 0.1024	940
322.7 K, 18150 kPa, x1 = 0.0102	824
322.7 K, 18330 kPa, x1 = 0.1024	942
322.7 K, 18570 kPa, x1 = 0.1024	943
322.7 K, 18770 kPa, x1 = 0.1024	945
322.7 K, 18990 kPa, x1 = 0.1024	946
327.6 K, 11610 kPa, x1 = 0.0102	548
327.6 K, 11720 kPa, x1 = 0.0102	558
327.6 K, 11840 kPa, x1 = 0.0102	568
327.6 K, 11970 kPa, x1 = 0.0102	578
327.6 K, 12110 kPa, x1 = 0.0102	589
327.6 K, 12270 kPa, x1 = 0.0102	600
327.6 K, 12440 kPa, x1 = 0.0102	612
327.6 K, 12510 kPa, x1 = 0.0247	682
327.6 K, 12630 kPa, x1 = 0.0102	624
327.6 K, 12630 kPa, x1 = 0.0247	687
327.6 K, 12720 kPa, x1 = 0.0247	691
327.6 K, 12850 kPa, x1 = 0.0102	636
327.6 K, 12890 kPa, x1 = 0.0247	698
327.6 K, 13060 kPa, x1 = 0.0247	704
327.6 K, 13110 kPa, x1 = 0.0102	649
327.6 K, 13250 kPa, x1 = 0.0247	711
327.6 K, 13400 kPa, x1 = 0.0102	663
327.6 K, 13460 kPa, x1 = 0.0247	718
327.6 K, 13670 kPa, x1 = 0.0247	724
327.6 K, 13730 kPa, x1 = 0.0102	677
327.6 K, 13900 kPa, x1 = 0.0247	731
327.6 K, 14110 kPa, x1 = 0.0102	692
327.6 K, 14140 kPa, x1 = 0.0247	738
327.6 K, 14190 kPa, x1 = 0.0487	791
327.6 K, 14340 kPa, x1 = 0.0487	795
327.6 K, 14410 kPa, x1 = 0.0247	745
327.6 K, 14560 kPa, x1 = 0.0102	707
327.6 K, 14570 kPa, x1 = 0.0487	799
327.6 K, 14710 kPa, x1 = 0.0247	753
327.6 K, 14830 kPa, x1 = 0.0487	804
327.6 K, 15010 kPa, x1 = 0.0247	760
327.6 K, 15080 kPa, x1 = 0.0487	809
327.6 K, 15100 kPa, x1 = 0.0102	723
327.6 K, 15270 kPa, x1 = 0.0247	766
327.6 K, 15370 kPa, x1 = 0.0487	814
327.6 K, 15550 kPa, x1 = 0.0247	772
327.6 K, 15660 kPa, x1 = 0.0487	819
327.6 K, 15730 kPa, x1 = 0.0102	740
327.6 K, 15940 kPa, x1 = 0.0487	825
327.6 K, 15970 kPa, x1 = 0.0247	779
327.6 K, 16080 kPa, x1 = 0.1024	899
327.6 K, 16170 kPa, x1 = 0.1024	900
327.6 K, 16280 kPa, x1 = 0.0487	829
327.6 K, 16300 kPa, x1 = 0.1024	901
327.6 K, 16400 kPa, x1 = 0.0247	787
327.6 K, 16420 kPa, x1 = 0.1024	903
327.6 K, 16460 kPa, x1 = 0.0102	758
327.6 K, 16540 kPa, x1 = 0.1024	904
327.6 K, 16640 kPa, x1 = 0.0247	791
327.6 K, 16650 kPa, x1 = 0.0487	836
327.6 K, 16650 kPa, x1 = 0.1024	905
327.6 K, 16780 kPa, x1 = 0.1024	906
327.6 K, 16930 kPa, x1 = 0.1024	908
327.6 K, 16980 kPa, x1 = 0.0247	798
327.6 K, 17060 kPa, x1 = 0.1024	909
327.6 K, 17130 kPa, x1 = 0.0102	771
327.6 K, 17210 kPa, x1 = 0.0247	802
327.6 K, 17210 kPa, x1 = 0.1024	911
327.6 K, 17330 kPa, x1 = 0.0487	846
327.6 K, 17390 kPa, x1 = 0.1024	912
327.6 K, 17490 kPa, x1 = 0.1024	913
327.6 K, 17600 kPa, x1 = 0.0247	808
327.6 K, 17620 kPa, x1 = 0.1024	914
327.6 K, 17740 kPa, x1 = 0.0487	851
327.6 K, 17750 kPa, x1 = 0.1024	916
327.6 K, 17850 kPa, x1 = 0.0102	786
327.6 K, 17870 kPa, x1 = 0.0247	813
327.6 K, 17960 kPa, x1 = 0.1024	918
327.6 K, 18080 kPa, x1 = 0.1024	919
327.6 K, 18200 kPa, x1 = 0.0487	857
327.6 K, 18230 kPa, x1 = 0.1024	920
327.6 K, 18380 kPa, x1 = 0.0102	795
327.6 K, 18380 kPa, x1 = 0.1024	922
327.6 K, 18580 kPa, x1 = 0.1024	923
327.6 K, 18690 kPa, x1 = 0.0487	863
327.6 K, 18770 kPa, x1 = 0.1024	924
327.6 K, 18840 kPa, x1 = 0.0102	802
327.6 K, 18940 kPa, x1 = 0.1024	925
332.4 K, 12410 kPa, x1 = 0.0102	539
332.4 K, 12550 kPa, x1 = 0.0102	548
332.4 K, 12670 kPa, x1 = 0.0102	558
332.4 K, 12820 kPa, x1 = 0.0102	568
332.4 K, 12980 kPa, x1 = 0.0102	578
332.4 K, 13160 kPa, x1 = 0.0102	589
